# Assays:
# PPARδ−/− embryos = assay: Complete hatching of cultured PPARδ−/− mouse embryos; format: cell-based; settings: 96 h; for effect on hatching of PPARδ−/− embryos: 0.1 μM from two-cell stage
# Source text: (§1) Harvest and culture of mouse embryos. Mice were obtained from the following sources: C3H, 129S1/SvImJ and C57BL6/J, the Jackson laboratory (Bar Harbor, Me., USA); ICR and C57BL6/Nhd, Harlan (Indianapolis, Ind., USA); PPARδ−/−, a gift from Dr. R. Evans (the Salk Institute, La Jolla, Calif.). The wild type (WT) counter parts of PPARδ−/− were bred by mating 129S1/SvImJ and the offspring of C57BL6/J×129S1/SvImJ. Mice were kept in temperature and humidity controlled environment (07:00 light on, 19:00 light off) with free access to food and water. The mouse embryos were harvested and cultured as described previously (Huang et al., 2003). Briefly, three-week old female mice were super-ovulated with intra-peritoneal injection of PMSG (5 IU) followed by hCG (5 IU) 42-46 hrs later. After hCG injection (at 15:00), each female mouse was caged with one male mouse with proven fertility. Unless specified otherwise, embryos (at two-cell stage) were harvested 44-48 hrs later and cultured (17-20 per group) at 37° C. under 5% CO2 in 4-well plates (Nalge Nunc International, Naperville, Ill., USA) containing 600 ul protein-free media. The HTF media (Sage Biopharma, Bedminster, N.J., USA) was used during the first 48 hrs; the αMEM (Irvine Scientific), with Earle's Salts and 2 mM glutamine, was used during the second 48 hrs. After 96 hrs of culture, each embryo was examined for the presence of zona pellucida. Those completely free of the zona pellucida were counted as having completely hatched. The rate of complete hatching was calculated by dividing the number of completely hatched embryos by the number of total embryos. Complete embryo hatching was used as an end point because it is a clear cut endpoint and correlates with the likelihood of implantation and viable pregnancy (Huang et al., 2003; Huang et al., 2004b). The concentration of the vehicle (DMSO) was less than 1:10,000; control embryos received the same concentration of DMSO.
# [1] = tested on: preimplantation mouse embryos; assay: BrdU uptake, proliferation index and cell number in cultured embryos; format: cell-based
# Protocol: 5-Bromo-2′-deoxy-uridine (BrdU) uptake and the proliferation index. The proliferation of embryonic cells was determined based on their abilities to incorporate BrdU. The assay was performed using a commercial kit (BrdU Labeling and Detection Kit I, Roche Applied Science, Indianapolis, Ind.) according to manufacturer's protocols with some optimizations. One of the changes was the duration of incubation. […] For the comparison between control and L165,041 treated embryos, the optimal time was 6 minutes. The modified procedure is as follows. Immediately after harvest, the embryos were incubated in 100 μl pre-equilibrated HTF medium containing 10 μM BrdU for […] at 37° C. under 5% CO2. Following the incubation, the embryos were fixed in ice-cold glycine (50 mM) in 70% ethanol (pH2.0) at −20° C. for 30 mins. Following rehydration/blocking in phosphate buffered saline (PBS) containing 1% BSA, the embryos were incubated with diluted anti-BrdU mouse monoclonal antibody (1:2) in the incubation buffer containing 1% BSA and followed by another incubation with a diluted FITC-conjugated […] IgG antibody (1:4) in PBS containing 1% BSA. Both incubations were at 37° C. and lasted for 30 mins; the embryos were washed in 200 μl PBS containing 1% BSA after each incubation. After a final incubation in DAPI (5 μg /ml) for 90 mins at 25° C., the embryos were mounted in 0.1 M Tris HCl (pH 8.5) containing 16.6% Elvanol® 50-42 (DuPont Wilmington, Del., USA) and 2.5% 1,4-diazabicyclo-(2.2.2)-octane. Cells that were in S-phase and, therefore, incorporated BrdU were identified under a FITC filter. Total cell number was determined based on DAPI nuclear staining under a UV filter (AxioPlan 2, Carl Zeiss, Germany). The proliferation index (percent of cells in S-phase) was determined by dividing the number of BrdU-positive cells by the number of total cells then multiplies by 100%.
# The proliferation of embryonic cells was determined based on their abilities to incorporate BrdU. […] Total cell number was determined based on Hoechst 33258 nuclear staining under a UV filter.
# [2] = tested on: PPARδ+/+ embryos transferred to gestational carriers (ICR female mice); assay: Embryo transfer to gestational carriers and determination of implantation rate; format: in vivo, mouse; settings: wild type two-cell embryos treated 48 h, gestation sacs counted 72 h after transfer; control 41%, p<0.05
# Protocol: Embryo transfer was performed as described previously (Huang et al., 2004b). Briefly, embryos were transferred to gestational carriers (ICR female mice) on day 2.5 of pseudopregnancy under a dissecting microscope (Olympus SZ-PT, Shinjuku-ku, Tokyo, Japan). After anesthesia, each uterine horn was accessed via a 1.5 cm flank incision. With the proximal oviduct held by a pair of forceps, an opening was created at the distal end of the uterine horn on the anti-mesenteric side with a 30 gauge needle. […] Up to seven embryos in 1.5 μl transfer medium (MEM with 25 mM HEPES and 1% BSA) were transferred to each horn. After each transfer, the contents of the pipette were examined under a stereomicroscope to identify retained embryos. To avoid the mixing of embryos as a result of embryo crossover (Dr. Andreas Zimmer, University of Bonn, Germany, MG118 List, the Jackson Laboratory), each gestational carrier received only one kind of embryo. […] Seventy-two h after embryo transfer, the rates of implantation were determined based on a previously-described method with modifications (Paria et al., 1993). […] After the carrier was sacrificed, the uterine horns were opened and the gestation sacs counted. The implantation rate was expressed as percentages of gestation sacs over total embryos transferred. […]
# [3] = tested on: preimplantation mouse embryos (C3B6F1); assay: TUNEL assay, dead cell index in cultured embryos; format: cell-based; settings: 0.1 μM, 72 hrs of culture
# Protocol: Terminal deoxynucleotidyl transferase mediated dUTP Nick End Labeling (TUNEL) and dead cell index. The embryonic cells that undergo programmed cell death were identified by TUNEL assay using a commercial kit (In Situ Cell Death Detection Kit, Roche Applied Science) with some modifications. At each time point indicated, embryos were collected after culture or harvested from mice and fixed in 4° C. PBS containing 4% buffered paraformaldehyde for 30 min. Prior to TUNEL, the embryos were incubated at 37° C. with 5% triton in PBS for 20 mins. The manufacturer's protocol was modified. Up to 20 blastocysts were incubated at 37° C. in 20 uL of TUNEL reaction solution (2 uL of TUNEL enzyme and 18 uL of 1:4 diluted labeling solution) in a humidified chamber for 60 mins. The embryos were then incubated in DAPI (30 ug/mL) for 5 mins at 37° C. before mounted in 16.6% Elvanol® 50-42 (Dupont, Wilmington, Del., USA) in 0.1 M Tris HCl pH 8.5. The apoptotic cells and the total cells were visualized using a fluorescence microscope (AxioPlan 2, Carl Zeiss, Germany) with FITC and UV filters, respectively. DNAse-treated embryos were used as positive controls. The dead cell index (percent of cells that were TUNEL positive) was determined by dividing the number of TUNEL-positive cells by the number of total cells then multiplies by 100%.
# PPARδ+/+ embryos = assay: Developmental stage (blastocyst formation) of cultured embryos at time of transfer; format: cell-based, mouse; settings: wild type two-cell embryos treated 48 h
# Source text: Harvest and culture of mouse embryos. Mice were obtained from the following sources: C3H, 129S1/SvImJ and C57BL6/J, the Jackson laboratory (Bar Harbor, Me., USA); ICR and C57BL6/Nhd, Harlan (Indianapolis, Ind., USA); PPARδ−/−, a gift from Dr. R. Evans (the Salk Institute, La Jolla, Calif.). The wild type (WT) counter parts of PPARδ−/− were bred by mating 129S1/SvImJ and the offspring of C57BL6/J×129S1/SvImJ. Mice were kept in temperature and humidity controlled environment (07:00 light on, 19:00 light off) with free access to food and water. The mouse embryos were harvested and cultured as described previously (Huang et al., 2003). […] Those completely free of the zona pellucida were counted as having completely hatched. The rate of complete hatching was calculated by dividing the number of completely hatched embryos by the number of total embryos. […]
# Embryo transfer was performed as described previously (Huang et al., 2004b). […] Seventy-two h after embryo transfer, the rates of implantation were determined based on a previously-described method with modifications (Paria et al., 1993). […] After the carrier was sacrificed, the uterine horns were opened and the gestation sacs counted. The implantation rate was expressed as percentages of gestation sacs over total embryos transferred. […]
# [4] = tested on: preimplantation mouse embryos (wild type, PPARδ+/+); assay: Complete hatching of cultured wild type mouse embryos; format: cell-based; settings: for rate of complete hatching versus control, ligand added at two-cell, eight-cell or morula stage: exposure 0-96, 24-96 and 48-96 hrs; for rate of complete hatching versus control, ligand added at two-cell, eight-cell or morula stage / rate of complete hatching versus control, ligand added at blastocyst stage: read at 96 hrs; for rate of complete hatching versus control, ligand added at blastocyst stage: exposure 72-96 hrs; for proportion of completely hatched embryos: 0.1 μM each ligand from two-cell stage, untreated 30%
# Source text: as §1, with “DMSO. Prism® Version 3.0 (GraphPad Software Inc. San Diego, Calif.), with the Hill slope set at 1.0, was used to estimate the ED50 of L-165041. Chi-square and Student's t-tests were used where appropriate (InStat® Version 3.05, GraphPad Software Inc.). A p<0.05 was considered statistically significant.” for “DMSO.”
# [5] = tested on: mouse embryos transferred to gestational carriers; settings: treated embryos transferred to gestational carriers; cited from earlier work
Structure (SMILES),effect on hatching of PPARδ−/− embryos (PPARδ−/− embryos),"cells in the S-phase (BrdU incorporation) versus control ([1]; 0.1 μM, 72 hrs of culture, BrdU 6 minutes)","average number of cells per embryo ([1]; 0.1 μM, 72 hrs of culture, same in control group)","percentages of BrdU-positive cells over the untreated control ([1]; 10 μM BrdU, wild type embryos)",implantation rate (gestation sacs over embryos transferred) [2],"dead (apoptotic, TUNEL positive) cells versus control [3]",blastocyst formation versus control (PPARδ+/+ embryos),"complete embryo hatching versus control ([4]; 1 μM ligand, two-cell embryos (C3B6F1), 96 hrs)","relative risk of complete hatching versus control group ([4]; 1 μM, 96 hrs, 95% confidence interval 1.08-3.36)","rate of complete hatching versus control, ligand added at two-cell, eight-cell or morula stage ([4]; 1 μM)","rate of complete hatching versus control, ligand added at two-cell, eight-cell or morula stage ([4]; 1 μM, listed as L-165041)","rate of complete hatching versus control, ligand added at blastocyst stage ([4]; 1 μM)","rate of complete hatching versus control, ligand added at blastocyst stage ([4]; 1 μM, listed as L-165041)","EC50 ([4]; Mus musculus, two-cell embryos cultured 96 hrs in different concentrations, estimated, Hill slope 1.0, read-out: ED50 of enhancement of complete embryo hatching)","proportion of completely hatched embryos ([4]; wild type embryos, 96 h)","completely hatched embryos versus total embryos (PPARδ−/− embryos; PPARδ−/− embryos, 0.1 μM, untreated 4/144)",more live births over control embryos [5],"completely hatched embryos versus total embryos ([4]; wild type embryos, 0.1 μM, 96 h)"
"CCCc1c(OCCCOc2ccc(OCC(=O)O)cc2)ccc(C(C)=O)c1O [L165,041, 4-[3-(4-Acetyl-3-hydroxy-2-propylphenoxy)propoxy]phenoxy-acetic acid]",Neither iloprost nor L-165041 affected the hatching of PPARδ−/− embryos,more cells in the S-phase,63,increased the percentages of BrdU-positive cells,64%,less dead cells,did not significantly enhance blastocyst formation,enhanced complete embryo hatching,1.9,significantly higher rates of complete hatching,effective in stimulating embryo hatching,the difference was not statistically significant,no longer effective in stimulating hatching,21 nM,54%,–,–,–
CC#CCC(C)[C@H](O)/C=C/[C@@H]1[C@H]2C/C(=C/CCCC(=O)O)C[C@H]2C[C@H]1O (some centres unmarked) [iloprost],had no effect,–,–,–,–,–,–,–,–,–,–,–,–,–,50%,3/144,28%,37/74

# Reference: patent publication US8632452B2, “Peroxisome proliferator-activator receptor δ (PPARδ) and the development of preimplantation embryos” (Board of Regents of the University of Texas System, priority 2005, dated 2014)
